What all share (type): in vivo
The subject of assay [1] is bermudagrass (Cynodon dactylon). Description: Test E pre-/postemergence/post directed. The conditions noted are these: POSTEMERGENCE
Details: key: 0 is no injury; 100 is complete control. The procedure, abridged: (§1)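 Injury scored visually on a 0–100 scale (100 = complete control) 13 to 21 days after treatment. Test chemicals, formulated with surfactant in non-phytotoxic solvent, were applied to soil within one day of planting, to plants at two to four leaves (three to twenty cm), or as directed spray at plant base.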

Assay [2] deals with large crabgrass (Digitaria sanguinalis). Description: Test E pre-/postemergence/post directed. Details: key: 0 is no injury; 100 is complete control. The conditions noted are these: PREEMERGENCE, Rate 32 g/ha. The procedure, abridged:
as §1

Assay [3] deals with common ragweed (Ambrosia elatior). Description: Test E pre-/postemergence/post directed. Details: key: 0 is no injury; 100 is complete control. The conditions noted are these: PREEMERGENCE, Rate 32 g/ha. The method in brief: as §1
Assay [4] concerns pitted morningglory (Ipomoea lacunosa). Description: Test E pre-/postemergence/post directed. Details: key: 0 is no injury; 100 is complete control. The conditions noted are these: PREEMERGENCE
The procedure, abridged: as §1

The subject of assay [5] is Italian ryegrass (Lolium multiflorum). Description: Test D. Details: key: 0 is no effect; 100 is complete control. The conditions noted are these: PREEMERGENCE
The subject of assay [6] is barnyardgrass (Echinochloa crus-galli). The experiment in a line: Test E pre-/postemergence/post directed. The conditions noted are these: PREEMERGENCE
Details: key: 0 is no injury; 100 is complete control. The method in brief:
as §1

Molecules are shown by their SMILES.

For the compound `Cc1cnc(-n2cnc(C(F)(F)F)c2)nc1Cc1cccc(C(F)(F)F)c1` [Compound 44], the “Plant response rating, Bermudagrass” value in assay [1] (Rate 125 g/ha) and in assay [1] (Rate 250 g/ha) was 0 each time. Moreover, the “Plant response rating, Large crabgrass” value in assay [2] is listed as 0.

Take `CCc1cnc(-n2ccc(C(F)(F)F)n2)nc1Cc1cccc(C(F)(F)F)c1` [Compound 46]: the “Plant response rating, Com. ragweed” value in assay [3] is 0.

For `COc1cnc(-c2ccc(C(F)(F)F)cc2)nc1Cc1cccc(C(F)(F)F)c1` [Compound 23], the “Plant response rating, P. morninglory” value in assay [4] (Rate 32 g/ha) and in assay [4] (Rate 64 g/ha) was 0 throughout.

As for `Cc1cnc(-c2ccc(C(F)(F)F)cc2)nc1Cc1cccc(C(F)(F)F)c1` [Example 1, 5-methyl-2-[4-(trifluoromethyl)phenyl]-4-[[3-(trifluoromethyl)phenyl]methyl]pyrimidine], the “Plant response rating, I. Ryegrass” value in assay [5] (Rate 125 g/ha) and in assay [5] (Rate 250 g/ha) was 100 throughout.

With `Cc1cnc(-c2ccc(C(F)(F)F)cc2)nc1Cc1cccc(OC(F)(F)F)c1` [Compound 15], the “Plant response rating, Barnyardgrass” value in assay [6] (Rate 32 g/ha) and in assay [6] (Rate 64 g/ha) was 0 in each case.

Values taken from patent US6525001B1, “Substituted pyrimidine and pyridine herbicides” (Mid-American Commercialization Corporation, priority 1997, dated 2003).
